Source: patent EP1090023B1 (GLAXO GROUP LIMITED, priority 1998, dated 1999)

What was measured:
Assay type in all cases: cell-based
adenosine 2a = adenosine 2a (Homo sapiens, UniProt P29274); test: Agonist activity against adenosine receptor subtypes, CHO cells with cAMP response element/SPAP reporter (basal cAMP); settings: ratio to EC50 of NECA; transfected CHO cells; effect on basal cAMP via SPAP
Protocol: (§1) Compounds of the invention were tested for in vitro and in vivo biological activity in accordance with the following screens: • (1) Agonist activity against adenosine 2a, adenosine 1 and adenosine 3 receptor subtypes.
(§2) Agonist selectivity of compounds against other human adenosine receptors was determined using Chinese hamster ovary (CHO) cells transfected with the gene for the relevant human adenosine receptor following a method based on that of Castanon and Spevak, 1994 . The CHO cells were also transfected with cyclic AMP response elements promoting the gene for secreted placental alkaline phosphatase (SPAP) (Wood, 1995). The effect of test compounds was determined by their effects on basal levels of cAMP (A2a) or on forskolin-enhanced cAMP (A1 and A3) as reflected by changes in levels of SPAP. EC50 values for compounds were then determined as a ratio to that of the non-selective agonist N-ethyl carboxamide adenosine (NECA).

adenosine 3 = biological target: T1, adenosine 3 (Homo sapiens, UniProt P0DMS8); test: Agonist activity against adenosine receptor subtypes, CHO cells with cAMP response element/SPAP reporter (forskolin-enhanced cAMP); settings: ratio to EC50 of NECA; transfected CHO cells; effect on forskolin-enhanced cAMP via SPAP
T1 sequence (P0DMS8 1-318): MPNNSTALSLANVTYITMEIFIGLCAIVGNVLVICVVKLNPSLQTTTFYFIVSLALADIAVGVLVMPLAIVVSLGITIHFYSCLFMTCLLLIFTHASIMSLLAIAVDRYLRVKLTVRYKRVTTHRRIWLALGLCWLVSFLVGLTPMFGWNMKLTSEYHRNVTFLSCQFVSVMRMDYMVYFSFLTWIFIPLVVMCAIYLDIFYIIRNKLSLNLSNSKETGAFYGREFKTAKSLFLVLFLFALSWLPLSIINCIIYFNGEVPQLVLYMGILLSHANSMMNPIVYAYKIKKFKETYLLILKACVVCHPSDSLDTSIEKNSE
Protocol: as §1, §2

adenosine 1 = biological target: T2, adenosine 1 (Homo sapiens, UniProt P30542); test: as above; settings: ratio to EC50 of NECA; transfected CHO cells; effect on forskolin-enhanced cAMP via SPAP
T2 sequence (P30542 1-326): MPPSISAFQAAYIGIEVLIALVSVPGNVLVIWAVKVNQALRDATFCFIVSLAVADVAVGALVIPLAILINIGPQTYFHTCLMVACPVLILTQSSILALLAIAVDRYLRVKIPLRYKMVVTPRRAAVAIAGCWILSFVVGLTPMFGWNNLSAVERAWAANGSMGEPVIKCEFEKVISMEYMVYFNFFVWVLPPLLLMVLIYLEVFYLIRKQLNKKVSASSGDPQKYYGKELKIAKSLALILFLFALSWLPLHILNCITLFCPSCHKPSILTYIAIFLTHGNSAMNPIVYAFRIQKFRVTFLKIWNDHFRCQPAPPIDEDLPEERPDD
Protocol: as §1, §2

Sequence of adenosine 2a (P29274 whole entry): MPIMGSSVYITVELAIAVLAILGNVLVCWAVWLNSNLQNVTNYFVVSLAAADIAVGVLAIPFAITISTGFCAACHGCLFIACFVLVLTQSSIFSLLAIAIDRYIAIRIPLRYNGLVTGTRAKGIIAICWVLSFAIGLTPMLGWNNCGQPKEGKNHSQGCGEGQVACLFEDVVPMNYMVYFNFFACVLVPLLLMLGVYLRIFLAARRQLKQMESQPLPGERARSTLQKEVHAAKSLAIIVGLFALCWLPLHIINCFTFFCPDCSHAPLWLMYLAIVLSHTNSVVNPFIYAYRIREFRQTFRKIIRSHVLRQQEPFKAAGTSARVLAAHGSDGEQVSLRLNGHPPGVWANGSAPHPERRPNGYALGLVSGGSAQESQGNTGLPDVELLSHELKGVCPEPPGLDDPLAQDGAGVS

| A2a (EC50 values as a ratio of that of NECA) (adenosine 2a) | A3 (EC50 values as a ratio of that of NECA) (adenosine 3) | A1 (EC50 values as a ratio of that of NECA) (adenosine 1) | Compound |
| --- | --- | --- | --- |
| 5.75 | >257 | 4514.96 | CCc1nc([C@H]2O[C@@H](n3cnc4c(NCC(c5ccccc5)c5ccccc5)nc(N[C@H](CO)Cc5ccccc5)nc43)[C@H](O)[C@@H]2O)no1.O=CO [Example 16, (2R,3R,4S,5R)-2-[6-(2,2-Diphenyl-ethylamino)-2-(1S-hydroxymethyl-2-phenyl-ethylamino)-purin-9-yl]-5-(5-ethyl-[1,2,4]oxadiazol-3-yl)-tetrahydro-furan-3,4-diol formate] |
| 5.45 | >518 | 538 | Cc1cnc([C@H]2O[C@@H](n3cnc4c(NCCC5CCCCC5)nc(N[C@H](CO)Cc5ccccc5)nc43)[C@H](O)[C@@H]2O)o1.O=CO [Example 17, (2R,3R,4S,5S)-2-[6-(2-Cyclohexyl-ethylamino)-2-(1S-hydroxymethyl-2-phenyl-ethylamino)-purin-9-yl]-5-(5-methyl-oxazol-2-yl)-tetrahydro-furan-3,4-diol formate] |
| 18.9 | >223 | 5515 | Cc1cnc([C@H]2O[C@@H](n3cnc4c(NCC(c5ccccc5)c5ccccc5)nc(N[C@@H]5CCNC5)nc43)[C@H](O)[C@@H]2O)o1.O=CO.O=CO [Example 18, (2R,3R,4S,5S)-2-[6-(2,2-Diphenyl-ethlyamino)-2-(pyrrolidin-3R-ylamino)-purin-9-yl]-5-(5-methyl-oxazol-2-yl)-tetrahydro-furan-3,4-diol diformate] |
| 4.05 | >293 | 3172 | Cc1nnc([C@H]2O[C@@H](n3cnc4c(NCC(c5ccccc5)c5ccccc5)nc(NCCc5cn(C)cn5)nc43)[C@H](O)[C@@H]2O)s1.O=CO.O=CO [Example 19, (2R,3R,4S,5S)-2-{6-(2,2-Diphenyl-ethylamino)-2-[2-(1-methyl-1H-imidazol-4-yl)-ethylamino]-purin-9-yl}-5-(5-methyl-[1,3,4]thiadiazol-2-yl)-tetrahydro-furan-3,4-diol diformate] |
| 17.7 | >470 | 2625 | Cc1nnc([C@H]2O[C@@H](n3cnc4c(NCC(c5ccccc5)c5ccccc5)nc(N[C@H](CO)Cc5ccccc5)nc43)[C@H](O)[C@@H]2O)s1.O=CO [Example 20, (2R,3R,4S,5S)-2-[6-(2,2-Diphenyl-ethylamino)-2-(1S-hydroxymethyl-2-phenyl-ethylamino)-purin-9-yl]-5-(5-methyl-[1,3,4]thiadiazol-2-yl)-tetrahydro-furan-3,4-diol formate] |
| 3.04 | >173 | 568.06 | CCc1nnc([C@H]2O[C@@H](n3cnc4c(NCC(c5ccccc5)c5ccccc5)nc(N[C@H](CO)Cc5ccccc5)nc43)[C@H](O)[C@@H]2O)o1.O=CO [Example 21, (2R,3R,4S,5S)-2-[6-(2,2-Diphenyl-ethylamino)-2-(1S-hydroxymethyl-2-phenyl-ethylamino)-purin-9-yl]-5-(5-ethyl-[1,3,4]oxadiazol-2-yl)-tetrahydro-furan-3,4-diol formate] |
| 5.57 | >162 | 432 | CCc1nnc([C@H]2O[C@@H](n3cnc4c(NCC(c5ccccc5)c5ccccc5)nc(N[C@@H]5CCNC5)nc43)[C@H](O)[C@@H]2O)o1.O=CO [Example 26, (2R,3R,4S,5S)-2-[6-(2,2-Diphenyl-ethylamino)-2-(pyrrolidin-3R-ylamino)-purin-9-yl]-5-(5-ethyl-[1,3,4]oxadiazol-2-yl)-tetrahydro-furan-3,4-diol formate] |

| Compound | A2a (EC50 values as a ratio of that of NECA) (adenosine 2a) | A3 (EC50 values as a ratio of that of NECA) (adenosine 3) | A1 (EC50 values as a ratio of that of NECA) (adenosine 1) |
| --- | --- | --- | --- |
| CCc1nc([C@H]2O[C@@H](n3cnc4c(NCC(c5ccccc5)c5ccccc5)nc(NCCN5CCOCC5)nc43)[C@H](O)[C@@H]2O)no1.O=CO [Example 15, (2R,3R,4S,5R)-2-[6-(2,2-Diphenyl-ethylamino)-2-(2-morpholin-4-yl-ethylamino)-purin-9-yl]-5-(5-ethyl-[1,2,4]oxadiazol-3-yl)-tetrahydro-furan-3,4-diol formate] | 13.62 | >190 | >=8649 |
| CCc1nnc([C@H]2O[C@@H](n3cnc4c(NCC(c5ccccc5)c5ccccc5)nc(NCCN5CCCCC5)nc43)[C@H](O)[C@@H]2O)o1.O=CO [Example 22, (2R,3R,4S,5S)-2-[6-(2,2-Diphenyl-ethylamino)-2-(2-piperidin-1-yl-ethylamino)-purin-9-yl]-5-(5-ethyl-[1,3,4]oxadiazol-2-yl)-tetrahydro-furan-3,4-diol formate] | 12.28 | >180 | 101.96 |
| CCc1nnc([C@H]2O[C@@H](n3cnc4c(NCC(c5ccccc5)c5ccccc5)nc(NCCN5CCOCC5)nc43)[C@H](O)[C@@H]2O)o1.O=CO [Example 23, (2R,3R,4S,5S)-2-[6-(2,2-Diphenyl-ethylamino)-2-(2-morpholin-4-yl-ethylamino)-purin-9-yl]-5-(5-ethyl-[1,3,4]oxadiazol-2-yl)-tetrahydro-furan-3,4-diol formate] | 6.16 | >180 | 101.96 |
| CCc1nnc([C@H]2O[C@@H](n3cnc4c(NCC(c5ccccc5)c5ccccc5)nc(NCCc5ccccn5)nc43)[C@H](O)[C@@H]2O)o1.O=CO [Example 24, (2R,3R,4S,5S)-2-[6-(2,2-Diphenyl-ethylamino)-2-(2-pyridin-2-yl-ethylamino)-purin-9-yl]-5-(5-ethyl-[1,3,4]oxadiazol-2-yl)-tetrahydro-furan-3,4-diol formate] | 6.04 | >175 | 390.97 |
| CCc1nnc([C@H]2O[C@@H](n3cnc4c(NCC(c5ccccc5)c5ccccc5)nc(N[C@H]5CC[C@H](N)CC5)nc43)[C@H](O)[C@@H]2O)o1.O=CO [Example 25, (2R,3R,4S,5S)-2-[2-(trans-4-Amino-cyclohexylamino)-6-(2,2-diphenyl-ethylamino)-purin-9-yl]-5-(5-ethyl-[1,3,4]oxadiazol-2-yl)-tetrahydro-furan-3,4-diol formate] | 4.81 | >136 | 398.28 |
| CCc1nnc([C@H]2O[C@@H](n3cnc4c(NCC(c5ccccc5)c5ccccc5)nc(NCCc5ccccn5)nc43)[C@H](O)[C@@H]2O)[nH]1.O=CO [Example 27, (2R,3R,4S,5R)-2-[6-(2,2-Diphenyl-ethylamino)-2-(2-pyridin-2-yl-ethylamino)-purin-9-yl]-5-(5-ethyl-4H-[1,2,4]triazol-3-yl)-tetrahydro-furan-3,4-diol formate] | 21.8 | >183 | 135.9 |
